Structures are written as SMILES. Read-outs that look alike come from different tables or passages of the source.

Holding throughout (format): cell-based, human
For assay [1], the system named is 15 non small cell lung cancer lines representing various EGFR and KRAS mutations. Briefly: Dose response studies against 15 NSCLC lines (alamar blue). The method, then: Dose response studies against 34 compounds from the pyridazinone and phenylfuran-carboxamide class were conducted. […] In addition, Tarceva was included in these dose response studies.
The dose response studies were done with the following standard procedure. First, the cells were counted and dispensed at 250 cells/well into 384-well microplates with compound. The cells were incubated for 48 hours at 37 C to complete treatment, and then alamar blue was added for an additional 48 hours. Finally, alamar blue reduction was measured and the data was loaded into ORIS, our data screening acquisition platform.

The test system of assay [2] is H3255. Briefly: Non Small Cell Lung Cancer Proliferation Assay (Alamar Blue). How it is done:
(§1) These cells have a doubling time of 1-2 days. All cell types are adherent and grow in colonies. The cells should be kept at a density between 50,000 cells/mL-500,000 cells/mL to provide for optimum growth and adequate nutrition. The cell line should be maintained at 37° C. in a humidified atmosphere with 5% CO2 in a sterile cell culture incubator.
(§2) To perform the assay, the Non Small Cell Lung Cancer lines are diluted in media and plated into 384 well microplates at a final density of 250 cells in 45 μL.
(§3) High Controls for this assay are made by treating Non Small Cell Lung Cancer cells with 5 ul of 10% DMSO. [Final concentration in this assay is 1% DMSO].
(§4) Important Note: All compounds for testing in this assay should be done at the final concentration of 1% DMSO.
(§5) After addition, the cells are placed in cell culture incubator at 37° C. for 48 hours for complete treatment.
(§6) After drug treatment, cytotoxicity is measured by Alamar Blue reduction.
(§7) The cells are incubated for 48 hours at 37° C. to complete the Alamar Blue reduction.
(§8) The final step in the assay is to measure the amount of Alamar Blue reduction. […] The Alamar Blue fluorescence is measured at an excitation of 530 nm and emission of 590 nm.
(§9) For the NSCLC project, the cell based assay was screened against a small molecule library of approximately 200,000 compounds. The compound library is stored in our automated robotic freezer (Biophile) at −20° C. in 100% DMSO. Compound freeze and thaw cycles are kept to a minimum. […] This assay was performed on a fully automated linear track robotic platform (CRS F3 Robot System, Thermo Electron Corp., Ontario, Canada) utilizing several integrated peripherals for plate handling, liquid dispensing, and readout detection. […] The microplates are then placed at 37° C. for 48 hours to complete treatment of cells with compounds. Next, 5 ul of alamar blue was added using a liquid dispenser (FlexDrop Precision Dispenser, Perkin Elmer, Mass., USA) and incubated for 48 hours at 37° C. The alamar blue prompt fluorescence was measured on Victor V (Victor^3 V, Perkin Elmer, Mass., USA) and output data files were loaded into ORIS (Oncology Research Informatics System, MSKCC, NY, USA), a screening data acquisition and analysis platform.

Assay [3] has as its system H2030. The description is as above. The following applies: dose response 10 μM to 5 nM. The method, then: as §1, §2, §3, §4, §5, §6, §7, §8, §9
Setting [4] is: HPL1D (SV40-immortalized human lung epithelian cells, EGFR WT, KRAS WT), 12 point doubling dilution 10 uM to 5 nM, alamar blue, read-out: IC50 HPL1D.
[5] abbreviates: Homo sapiens, read-out: IC50 H23.
[6] abbreviates: Homo sapiens, read-out: IC50 H1118.
The mark [7] stands for this setting: Homo sapiens, read-out: IC50 HPL1D.
Where [8] appears, read: Homo sapiens, read-out: IC50 PC9.
Setting [9] is: Homo sapiens, PC9 (EGFR DclE746-A750, KRAS WT), 12 point doubling dilution 10 uM to 5 nM, alamar blue, read-out: IC50 PC9.
The mark [10] stands for this setting: Homo sapiens, H23 (EGFR WT, KRAS G12C), 12 point doubling dilution 10 uM to 5 nM, alamar blue, read-out: IC50 H23.

Take `Cc1cccc(NC(=O)c2ccc([N+](=O)[O-])o2)c1` [compound 71762]: the IC50 in assay [1] (setting [4]) was > 10000 nM. Same read-out and setting: then `O=C(Nc1ccc(F)c(Cl)c1)c1ccc([N+](=O)[O-])o1` [compound 87200], with > 10000 nM. For the molecule `Cc1ccc(NC(=O)c2ccc([N+](=O)[O-])o2)cc1` [compound 98697], in assay [2] (confirmation, percentage inhibition, 10 μM compound in 1% DMSO (v/v)), the “CONFIRMATION [%] 3255” value was 130%. Also, the IC50 in assay [1] (setting [5]) is 910 nM; in assay [1] (setting [6]), 560 nM; in assay [1] (setting [7]) it was > 10000 nM; in assay [1] (setting [8]), 2170 nM.

Regarding `O=c1c(Cl)c(Cl)cnn1-c1cccc(C(F)(F)F)c1` [compound 176729], in assay [1] (setting [9]), the IC50 amounted to 900 nM. With `O=c1c(Cl)c(Cl)cnn1-c1ccccc1` [compound 257014], the IC50 was determined as 260 nM in assay [1] (setting [5]), 450 nM in assay [1] (setting [6]), 380 nM in assay [1] (setting [7]) and 830 nM in assay [1] (setting [8]).

In the case of `O=c1c(Br)c(Br)cnn1-c1ccccc1` [compound 257015], the IC50 in assay [1] (setting [4]) is 300 nM.

On to `Cc1ccc(-n2ncc(Cl)c(Cl)c2=O)cc1` [compound 257016], for which the IC50 in assay [1] (setting [10]) came out at 320 nM. Turning to `CCc1cccc(-n2ncc(Cl)c(Cl)c2=O)c1` [compound 267062], the IC50 in assay [1] (setting [9]) was found to be 1510 nM. Regarding `CCCCc1cccc(-n2ncc(Cl)c(Cl)c2=O)c1` [compound 267063], the IC50 in assay [1] (H2444 (EGFR WT, KRAS G12V), 12 point doubling dilution 10 uM to 5 nM, alamar blue, read-out: IC50 H2444) was determined as 5280 nM. Regarding `Cc1cc(-n2ncc(Cl)c(Cl)c2=O)ccc1Br` [compound 267064], the IC50 in assay [1] (setting [9]) is > 10000 nM. Take `Cc1cc(-n2ncc(Cl)c(Cl)c2=O)ccc1Cl` [compound 267065]: the IC50 in assay [1] (setting [9]) is > 10000 nM. Still for that read-out and setting: the value for `Cc1nc2cc(-n3ncc(Cl)c(Cl)c3=O)ccc2s1` [compound 267067] was > 10000 nM.

For `Cc1ccc(-n2ncc(Cl)c(Cl)c2=O)cc1Cl` [compound 267070], the IC50 in assay [1] (setting [4]), in assay [1] (setting [10]) and in assay [1] (setting [9]) was > 10000 nM throughout. As to `O=c1c(Br)c(Br)cnn1-c1cccc(C(F)(F)F)c1` [compound 267072], the IC50 in assay [3] turned out to be 1420 nM. On to `O=c1c(Br)c(Br)cnn1-c1ccccn1` [compound 267073], for which the results for the IC50 in assay [1] (setting [10]) and in assay [1] (setting [9]) were 70 nM and 420 nM, respectively. Turning to `O=c1c(Cl)c(Cl)cnn1-c1ccc(Cl)cc1Cl` [compound 267077], the IC50 in assay [2] (dose response 10 μM to 5 nM) is 1110 nM; in assay [1] (setting [9]) it was > 10000 nM. Consider `O=c1c(Cl)c(Cl)cnn1-c1ccccn1` [compound 267090], for which the IC50 in assay [1] (Homo sapiens, NCI-H820, H820 (EGFR T790M/DelE746-A750, KRAS WT), 12 point doubling dilution 10 uM to 5 nM, alamar blue, read-out: IC50 H820) came to 410 nM; in assay [1] (setting [10]), 80 nM.

These data come from patent US20130131062A1, “PYRIDAZINONES AND FURAN-CONTAINING COMPOUNDS” (priority 2006, published 2013).
